Consider two compounds from publication PMC10382042, “Brevetoxin versus Brevenal Modulation of Human Nav1 Channels” (Marine Drugs, 2023).

pEC50: −log10 of the molar value.

In series [1] the test system is human Nav1.2, Nav1.4, Nav1.5, Nav1.7. Briefly: in vitro. The settings on record: human; all Nav subtypes, Ipeak and Ilate; read-out: pI/EC50, range over Nav currents. In kind it is cell-based. The procedure:
(§1) Functional modulation of recombinant human voltage-gated sodium (Nav) channels exposed to marine PbTx-3 and brevenal was assessed by automated patch-clamp electrophysiology. Neuronal Nav1.2 (CNS) and Nav1.7 (PNS), in addition to muscle Nav1.4 (skeletal) and Nav1.5 (cardiac) sodium channels, were patch-clamped in mammalian cells. Whole-cell currents mediated by human Nav1.4 and Nav1.7 overexpressed in CHO-K1 cells, as well as human Nav1.2 and Nav1.5 overexpressed in HEK293 cells, were recorded at room temperature. Currents were elicited by 25 ms test pulses to −20 mV from a holding potential (Vh) of −120 mV, delivered for 5 min at 0.1 Hz, after each full-bath solution exchange to allow current amplitude and kinetics to reach a steady state.
(§2) Nav currents were evoked by a 25 ms test pulse to −20 mV (Vh = −120 mV; 0.1 Hz). Extracellular drug applications were performed by exchanging the whole bath with the test compounds diluted in extracellular solution to the required concentration during constant monitoring (25 ms, −20 mV, Vh −120 mV, 0.1 Hz). The control solution included 0.1% ethanol to account for non-specific vehicle effects. For concentration–response curves (CRCs), compounds at incrementally higher concentrations were applied to the extracellular bath solution and allowed to equilibrate for 5 min. The average current amplitude from the last five test pulses at each concentration was used for analysis.
(§3) APC data were analyzed using PatchMaster (Nanion) and Igor (WaveMetrics, Portland, OR, USA) software. Nav peak and late currents measured in the presence of increasing amounts of PbTx-3 and brevenal were divided by the current in control conditions (ICtr) to generate CRCs. […]

Series [2] deals with human Nav channels (Nav1.2, Nav1.4, Nav1.5, Nav1.7). The experiment in a line: in vitro. The format is cell-based. On the procedure: as §1, §2, §3

`C=C/C=C\CC[C@H]1O[C@H]2CC[C@@]3(C)O[C@H]4[C@@H](O)C[C@@]5(C)O[C@@H](CC/C=C(C)/C(C)=C/C=O)[C@@H](C)C[C@H]5O[C@@H]4C[C@@H]3O[C@@H]2CC[C@@]1(C)O` [Brevenal]: the pEC50 in series [1] was 5.00 to 8.00.
As to `C=C(CO)C[C@@H]1C[C@H](O)[C@]2(C)OC3CC4OC5C[C@]6(C)O[C@]7(C)CCC8OC9C[C@]%10(C)OC%11C(C)=CC(=O)OC%11CC%10OC9C[C@@H](C)C8OC7CC6O[C@@]5(C)C/C=C\C4OC3CC2O1` (stereo partly drawn) [PbTx-3, Brevetoxin PbTx-3], in series [2], the “fold enhancement of late currents mediated by Nav1.2, Nav1.4, and Nav1.5” value is recorded as 2–4 fold; the “orders of magnitude more potent than brevenal at modulating Nav currents” value is 1–3 orders of magnitude.
